Data from ChEMBL document CHEMBL4840367, “2-Phenylcyclopropylmethylamine Derivatives as Dopamine D2 Receptor Partial Agonists: Design, Synthesis, and Biological Evaluation” (J Med Chem, 2021).
Where “and” joins values, the source holds several entries; their conditions need not be identical. Equal entries are not always repeated.

Key:
D(4) dopamine receptor = molecular target: T1, D(4) dopamine receptor (Homo sapiens, UniProt P21917)
T1 sequence (P21917 whole entry): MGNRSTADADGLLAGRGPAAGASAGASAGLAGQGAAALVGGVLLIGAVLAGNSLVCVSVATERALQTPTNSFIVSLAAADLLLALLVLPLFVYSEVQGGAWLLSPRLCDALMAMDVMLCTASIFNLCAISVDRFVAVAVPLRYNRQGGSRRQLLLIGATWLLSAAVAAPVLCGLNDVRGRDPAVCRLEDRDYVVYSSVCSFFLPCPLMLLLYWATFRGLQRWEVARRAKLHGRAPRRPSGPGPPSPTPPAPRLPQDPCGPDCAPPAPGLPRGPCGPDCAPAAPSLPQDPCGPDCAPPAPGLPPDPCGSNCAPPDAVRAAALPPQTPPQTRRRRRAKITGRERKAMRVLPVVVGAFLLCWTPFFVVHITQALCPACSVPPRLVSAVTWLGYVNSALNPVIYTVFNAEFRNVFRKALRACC

D(1A) dopamine receptor = D(1A) dopamine receptor (Homo sapiens, UniProt P21728)
Sequence of D(1A) dopamine receptor (P21728 whole entry): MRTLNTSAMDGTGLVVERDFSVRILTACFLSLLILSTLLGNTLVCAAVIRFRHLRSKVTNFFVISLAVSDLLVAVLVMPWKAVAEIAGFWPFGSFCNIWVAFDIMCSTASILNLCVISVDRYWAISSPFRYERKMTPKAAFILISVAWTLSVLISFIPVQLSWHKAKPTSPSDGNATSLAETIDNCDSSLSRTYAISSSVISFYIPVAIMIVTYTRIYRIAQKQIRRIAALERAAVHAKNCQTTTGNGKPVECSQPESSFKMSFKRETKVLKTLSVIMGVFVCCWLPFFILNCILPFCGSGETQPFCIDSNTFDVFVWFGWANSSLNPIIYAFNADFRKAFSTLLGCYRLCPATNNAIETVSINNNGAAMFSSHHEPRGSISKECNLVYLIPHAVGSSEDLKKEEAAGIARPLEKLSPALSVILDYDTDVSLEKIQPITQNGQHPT

[1] = molecular target: T2, 5-hydroxytryptamine receptor 2C (Homo sapiens, UniProt P28335)
T2 sequence (P28335 whole entry): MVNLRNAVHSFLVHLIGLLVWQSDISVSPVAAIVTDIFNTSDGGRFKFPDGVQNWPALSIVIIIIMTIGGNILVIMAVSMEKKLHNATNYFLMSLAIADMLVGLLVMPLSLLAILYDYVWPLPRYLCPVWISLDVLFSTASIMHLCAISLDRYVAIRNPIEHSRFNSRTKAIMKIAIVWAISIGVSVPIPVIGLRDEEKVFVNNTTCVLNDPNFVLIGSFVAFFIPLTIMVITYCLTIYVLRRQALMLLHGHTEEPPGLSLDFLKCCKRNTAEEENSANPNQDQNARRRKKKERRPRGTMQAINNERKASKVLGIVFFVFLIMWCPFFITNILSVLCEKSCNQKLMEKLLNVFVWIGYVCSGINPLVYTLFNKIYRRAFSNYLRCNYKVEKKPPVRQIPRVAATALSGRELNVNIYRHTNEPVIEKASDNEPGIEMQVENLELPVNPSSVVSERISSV

[2] = molecular target: 5-hydroxytryptamine receptor 2A (Homo sapiens, UniProt P28223); type: cell membranes, HEK293T, Membrane
Sequence of 5-hydroxytryptamine receptor 2A (P28223 whole entry): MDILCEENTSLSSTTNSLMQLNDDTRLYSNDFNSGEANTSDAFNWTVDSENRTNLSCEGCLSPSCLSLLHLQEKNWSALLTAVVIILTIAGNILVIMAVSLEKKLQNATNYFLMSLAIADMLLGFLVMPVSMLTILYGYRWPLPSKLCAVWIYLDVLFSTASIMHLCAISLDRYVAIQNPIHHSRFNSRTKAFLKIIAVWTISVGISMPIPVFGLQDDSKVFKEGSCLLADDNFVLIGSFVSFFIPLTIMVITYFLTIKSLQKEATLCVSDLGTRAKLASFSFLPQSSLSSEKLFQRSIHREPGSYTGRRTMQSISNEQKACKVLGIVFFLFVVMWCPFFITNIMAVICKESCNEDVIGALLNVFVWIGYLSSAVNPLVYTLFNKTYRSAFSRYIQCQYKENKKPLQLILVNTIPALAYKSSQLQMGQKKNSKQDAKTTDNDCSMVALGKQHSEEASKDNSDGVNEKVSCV

D(2) dopamine receptor [3] = molecular target: T3, D(2) dopamine receptor (Homo sapiens, UniProt P14416); type: cell membranes, HEK293T, Membrane
T3 sequence (P14416 whole entry): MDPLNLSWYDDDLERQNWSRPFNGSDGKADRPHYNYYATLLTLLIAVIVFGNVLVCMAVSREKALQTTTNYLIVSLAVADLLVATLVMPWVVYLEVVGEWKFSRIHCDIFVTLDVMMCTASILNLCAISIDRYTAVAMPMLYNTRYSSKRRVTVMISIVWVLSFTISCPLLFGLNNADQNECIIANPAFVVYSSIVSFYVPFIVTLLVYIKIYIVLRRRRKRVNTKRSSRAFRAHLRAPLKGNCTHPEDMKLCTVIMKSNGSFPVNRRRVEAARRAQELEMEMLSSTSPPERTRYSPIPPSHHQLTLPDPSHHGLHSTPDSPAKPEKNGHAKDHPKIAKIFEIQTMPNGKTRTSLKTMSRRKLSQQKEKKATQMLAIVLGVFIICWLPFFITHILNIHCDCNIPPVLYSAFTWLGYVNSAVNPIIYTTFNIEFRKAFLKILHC

D(2) dopamine receptor [4] = molecular target: T3, D(2) dopamine receptor
D(2) dopamine receptor [5] = molecular target: T3, D(2) dopamine receptor; remark: listed apart in the source
in vitro [6] = settings: human, liver microsomes
Description: Metabolic stability in human liver microsomes assessed as half life preincubated for 5 mins followed by NADPH addition measured after 10 mins by LC-MS analysis

in vitro [7] = settings: mouse, liver microsomes
Description: Metabolic stability in mouse liver microsomes assessed as half life preincubated for 5 mins followed by NADPH addition measured after 10 mins by LC-MS analysis

With `COc1ccc(Cl)cc1[C@H]1C[C@@H]1CNCCCOc1ccc2ccc(=O)[nH]c2c1` the Ki (D(4) dopamine receptor) was 604 nM, the Ki (D(1A) dopamine receptor) was over 10000 nM and the Ki [1] was 604 nM. The Ki [2] was 1160 nM.
Molecule `CSc1ccccc1C1CC1CNCCCCOc1ccc2c(c1)NC(=O)CC2` (stereo not given) has a Ki (D(2) dopamine receptor [3]) of 366 nM, an EC50 (D(2) dopamine receptor [4]) of 35.7 nM and an EC50 (D(2) dopamine receptor [5]) of 18.9 nM.
With `COc1ccccc1C1CC1CNCC[C@H]1CC[C@H](NC(=O)N2CCCC2)CC1` (stereo not given in full) the Ki (D(2) dopamine receptor [3]) was 2190 nM.
In the case of `O=c1ccc2ccc(OCCCCNCC3CC3c3cccc4c3OCCO4)cc2[nH]1` (stereo not given), the Ki (D(2) dopamine receptor [3]) is reported as 178 nM, the EC50 (D(2) dopamine receptor [4]) is reported as 23.4 nM and the EC50 (D(2) dopamine receptor [5]) is reported as 26.3 nM.
`CN(C)C(=O)N[C@H]1CC[C@H](CCNCC2CC2c2cccc3c2OCCO3)CC1` (stereo not given in full) gave a Ki (D(2) dopamine receptor [3]) of 2310 nM.
`CN(CCCCOc1ccc2c(c1)NC(=O)CC2)CC1CC1c1cccc(Cl)c1Cl` (stereo not given) showed a Ki (D(2) dopamine receptor [3]) of 322 nM.
`O=c1ccc2ccc(OCCCCN3CCN(c4cccc5sccc45)CC3)cc2[nH]1` [BREXPIPRAZOLE] gave a Ki (D(2) dopamine receptor [3]) of 0.51 nM, an EC50 (D(2) dopamine receptor [4]) of 16.1 nM and an EC50 (D(2) dopamine receptor [5]) of 10.2 nM. The half-life at 10 min (in vitro [6]) was 27.2 min and the half-life at 10 min (in vitro [7]) was 17.2 min.
`COc1ccc(F)cc1C1CC1CNCCCOc1ccc2c(c1)NC(=O)CC2` (stereo not given) gave a Ki (D(2) dopamine receptor [3]) of 27.4 nM, an EC50 (D(2) dopamine receptor [4]) of 14.9 nM and an EC50 (D(2) dopamine receptor [5]) of 3.47 nM.
Work on `COc1ccccc1C1CC1CNCC[C@H]1CC[C@H](NC(=O)N(C)C)CC1` (stereo not given in full) yielded a Ki (D(2) dopamine receptor [3]) of 1820 nM.
With `CN(C)C(=O)N[C@H]1CC[C@H](CCN2CCN(c3cccc(Cl)c3Cl)CC2)CC1` [CARIPRAZINE] the half-life at 10 min (in vitro [6]) was 32.7 min and the half-life at 10 min (in vitro [7]) was 22.3 min.
Work on `COc1ccc(F)cc1[C@H]1C[C@@H]1CNCCCCOc1ccc2ccc(=O)[nH]c2c1` yielded a Ki (D(4) dopamine receptor) of 122 nM, a Ki (D(1A) dopamine receptor) of over 10000 nM and a Ki [1] of 122 nM. It also gave a Ki [2] of 1410 nM.
For `CN(C)C(=O)N[C@H]1CC[C@H](CCNCC2CC2c2cccc(Cl)c2Cl)CC1` (stereo not given in full), the Ki (D(2) dopamine receptor [3]) was 1330 nM.
`O=C1CCc2ccc(OCCCCNCC3CC3c3cccc4c3OCCO4)cc2N1` (stereo not given) showed a Ki (D(2) dopamine receptor [3]) of 384 nM, an EC50 (D(2) dopamine receptor [4]) of 61.7 nM and an EC50 (D(2) dopamine receptor [5]) of 95.5 nM.
With `COc1ccc(F)cc1[C@H]1C[C@@H]1CNCCCOc1ccc2ccc(=O)[nH]c2c1` the Ki (D(4) dopamine receptor) was 305 nM, the Ki (D(1A) dopamine receptor) was over 10000 nM and the Ki [1] was 305 nM. For the same molecule, the Ki [2] was 520 nM.
Molecule `COc1ccccc1C1CC1CNCCCOc1ccc2ccc(=O)[nH]c2c1` (stereo not given) has a Ki (D(2) dopamine receptor [3]) of 156 nM, an EC50 (D(2) dopamine receptor [4]) of 7.08 nM and an EC50 (D(2) dopamine receptor [5]) of 11.2 nM.
`COc1ccccc1C1CC1CNCC[C@H]1CC[C@H](NC(=O)c2ccccc2)CC1` (stereo not given in full) showed a Ki (D(2) dopamine receptor [3]) of 1040 nM.
In the case of `COc1ccccc1C1CC1CNCCCCOc1ccc2ccc(=O)[nH]c2c1` (stereo not given), the Ki (D(2) dopamine receptor [3]) is reported as 59.9 nM, the EC50 (D(2) dopamine receptor [4]) is reported as 32.4 nM and the EC50 (D(2) dopamine receptor [5]) is reported as 26.3 nM.
In the case of `COc1ccccc1C1CC1CNCCCOc1ccc2c(c1)NC(=O)CC2` (stereo not given), the Ki (D(2) dopamine receptor [3]) is reported as 126 nM, the EC50 (D(2) dopamine receptor [4]) is reported as 10 nM and the EC50 (D(2) dopamine receptor [5]) is reported as 9.3 nM.
`CSc1ccccc1C1CC1CNCCCCOc1ccc2ccc(=O)[nH]c2c1` (stereo not given) gave a Ki (D(2) dopamine receptor [3]) of 95.2 nM, an EC50 (D(2) dopamine receptor [4]) of 7.43 nM and an EC50 (D(2) dopamine receptor [5]) of 2.88 nM.
In the case of `COc1ccccc1C1CC1CNC/C=C/COc1ccc2c(c1)NC(=O)CC2` (stereo not given), the Ki (D(2) dopamine receptor [3]) is reported as 454 nM, the EC50 (D(2) dopamine receptor [4]) is reported as 61.3 nM and 60.3 nM and the EC50 (D(2) dopamine receptor [5]) is reported as 22.9 nM.
For `COc1ccccc1C1CC1CNCCCCCOc1ccc2c(c1)NC(=O)CC2` (stereo not given), the Ki (D(2) dopamine receptor [3]) was 259 nM, the EC50 (D(2) dopamine receptor [4]) was 417 nM and the EC50 (D(2) dopamine receptor [5]) was 891 nM.
Molecule `COc1ccc(Cl)cc1[C@H]1C[C@@H]1CNCCCCOc1ccc2c(c1)NC(=O)CC2` has a Ki (D(4) dopamine receptor) of 373 nM, a Ki (D(1A) dopamine receptor) of over 10000 nM and a Ki [1] of 373 nM. The Ki [2] was 2090 nM.
Work on `CN1CCc2ccccc2Cc2[nH]c3ccccc3c2CC1` yielded a Ki (D(1A) dopamine receptor) of 2.93 nM.
